US6835382B2, “Ii peptide therapeutics to enhance antigen presentation” (University of Massachusetts, priority 1996, dated 2004)
Positions of bridges follow the written chain, without caps; N, C: chain ends. Non-standard residues stand in square brackets, D forms with d. No end group written: not given here. hArg = N=C(N)NCCCC[C@H](N)C(=O)O; Cit = NC(=O)NCCC[C@H](N)C(=O)O

Target: T1, murine E^d MHC class II allele (Mus musculus, UniProt P01904+P01915)
T1 sequence (P01904 26-255): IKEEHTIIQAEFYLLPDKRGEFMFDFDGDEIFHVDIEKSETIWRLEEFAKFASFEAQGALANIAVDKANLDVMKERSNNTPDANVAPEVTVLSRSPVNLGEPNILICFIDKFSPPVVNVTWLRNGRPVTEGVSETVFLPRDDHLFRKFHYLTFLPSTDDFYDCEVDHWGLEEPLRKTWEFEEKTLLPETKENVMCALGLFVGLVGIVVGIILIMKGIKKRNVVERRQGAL
T1 sequence (P01915 27-264 limits assumed): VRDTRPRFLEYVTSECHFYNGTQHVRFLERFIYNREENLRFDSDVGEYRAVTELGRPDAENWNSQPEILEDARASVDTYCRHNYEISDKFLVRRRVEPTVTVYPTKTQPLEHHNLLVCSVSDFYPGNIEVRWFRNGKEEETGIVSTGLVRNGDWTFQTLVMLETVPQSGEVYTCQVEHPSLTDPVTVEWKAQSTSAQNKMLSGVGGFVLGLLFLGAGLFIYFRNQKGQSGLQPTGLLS
Experiment: processed antigen assay, E^d allele (APC pulsed with native HEL)
Assay type: cell-based
Set-up: The A20 and CH27 B cell lymphoma lines express H-2^d and H-2^k alleles, respectively; endogenous in cells; host or cells: A20 B cell lymphoma (mitomycin C-treated or paraformaldehyde-fixed)
Settings: AE peptide 64 μM; for T cell response relative to baseline (None = 1.00), E^d: Table 31, native HEL prepulse 10 μM; for T cell response relative to baseline (None = 1.00), E^d / T cell response relative to baseline (None = 1.0), E^d: supernatant dilution 1:4; for T cell response relative to baseline (None = 1.0), E^d: Table 32, native HEL prepulse 20 μM; for Activity in processed antigen assay, E^d (baseline = 1.0): Table 34, native HEL 10 μM prepulse, supernatant 1:8
Method in brief: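 E^d APC (1×10^6/mL) pulsed 8 h with native HEL, washed, mitomycin C-treated, then cocultured 24 h with AE peptide (64 μM) and HEL-specific T cell hybridoma. Interleukin release measured by HT-2 proliferation using supernatant diluted 1:4 and 1:8. Response expressed relative to baseline without AE peptide (=1).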

Substance: Ac-A[Cit]NKNPK-NH2 [AE351]
- T cell response relative to baseline (None = 1.00), E^d: 0.87

Substance: Ac-FK HArg MYP Cit-NH2 [AE371]
- T cell response relative to baseline (None = 1.0), E^d: 0.61

Substance: Ac-LK HArg KYPK-NH2 [AE363]
- T cell response relative to baseline (None = 1.0), E^d: 0.75

Substance: Ac-LKMKYPK-NH2 [AE362]
- T cell response relative to baseline (None = 1.0), E^d: 0.58

Substance: Ac-LR HArg KYP Cit-NH2 [AE366]
- T cell response relative to baseline (None = 1.0), E^d: 0.53

Substance: Ac-LR HArg MYPK-NH2 [AE365]
- T cell response relative to baseline (None = 1.0), E^d: 0.65

Substance: Ac-LR Orn K HArg PK-NH2 [AE340]
- T cell response relative to baseline (None = 1.00), E^d: 0.16

Substance: Ac-LRLKYPN-NH2 [AE368]
- T cell response relative to baseline (None = 1.0), E^d: 0.55

Substance: Ac-LRMKLPK (lactam 4-C) [AE382]
- Activity in processed antigen assay, E^d (baseline = 1.0): 0.61

Substance: Ac-LRMKNPF-NH2 [AE350]
- T cell response relative to baseline (None = 1.00), E^d: 0.56

Substance: Ac-LRMKYPN-NH2 [AE370]
- T cell response relative to baseline (None = 1.0), E^d: 0.55

Substance: Ac-LRMKYP[Cit]-NH2 [AE364]
- T cell response relative to baseline (None = 1.0), E^d: 0.56

Substance: Ac-LRMMYP[Cit]-NH2 [AE367]
- T cell response relative to baseline (None = 1.0), E^d: 0.69

Substance: Ac-L[hArg]LKYPK-NH2 [AE361]
- T cell response relative to baseline (None = 1.0), E^d: 0.51

Substance: Ac-L[hArg]MKYPK-NH2 [AE360]
- T cell response relative to baseline (None = 1.0), E^d: 0.64

Substance: cyclic LRMKLPK (bridge (positions not given here); also: cyclic, ring type not given here) [AE381, “head-to-tail” cyclization from the amino-terminus to the carboxyl-terminus of AE114]
- Activity in processed antigen assay, E^d (baseline = 1.0): 0.18
